Results taken from US20210380606A1, “5-AZAINDAZOLE DERIVATIVES AS ADENOSINE RECEPTOR ANTAGONISTS” (Merck Patent GmbH, priority 2018, published 2021).
Read-outs that look alike come from different tables or passages of the source.

Columns and labels:
human A2B receptors = biological target: T1, human A2B receptors (Homo sapiens, UniProt P29275); assay: Functional human A2B receptor activity, recombinant HEK293 cells, cAMP (HTRF); assay type: cell-based; settings: read-out: A2B (Category)
T1 construct: expressed in transfected cells; host or cells: HEK293
T1 sequence (P29275 1-332): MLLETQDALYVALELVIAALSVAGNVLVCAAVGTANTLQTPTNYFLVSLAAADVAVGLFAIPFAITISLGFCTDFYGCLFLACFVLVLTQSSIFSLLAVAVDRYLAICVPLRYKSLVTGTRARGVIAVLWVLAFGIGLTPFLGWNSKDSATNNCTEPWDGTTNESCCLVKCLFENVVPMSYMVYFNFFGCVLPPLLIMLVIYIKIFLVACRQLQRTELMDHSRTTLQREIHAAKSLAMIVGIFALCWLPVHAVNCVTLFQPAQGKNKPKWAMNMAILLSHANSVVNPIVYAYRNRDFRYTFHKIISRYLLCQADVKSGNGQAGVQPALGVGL
Method in brief: (§1)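 Adenosine receptor activity tracked via second-messenger cAMP; incubation 15 min, then HTRF detection of cellular cAMP.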

human A2A receptors = biological target: T2, human A2A receptors (Homo sapiens, UniProt P29274); assay: Functional human A2A receptor activity, recombinant HEK293 cells, cAMP (HTRF); assay type: cell-based; settings: read-out: A2A (Category)
T2 construct: expressed in transfected cells; host or cells: HEK293
T2 sequence (P29274 whole entry): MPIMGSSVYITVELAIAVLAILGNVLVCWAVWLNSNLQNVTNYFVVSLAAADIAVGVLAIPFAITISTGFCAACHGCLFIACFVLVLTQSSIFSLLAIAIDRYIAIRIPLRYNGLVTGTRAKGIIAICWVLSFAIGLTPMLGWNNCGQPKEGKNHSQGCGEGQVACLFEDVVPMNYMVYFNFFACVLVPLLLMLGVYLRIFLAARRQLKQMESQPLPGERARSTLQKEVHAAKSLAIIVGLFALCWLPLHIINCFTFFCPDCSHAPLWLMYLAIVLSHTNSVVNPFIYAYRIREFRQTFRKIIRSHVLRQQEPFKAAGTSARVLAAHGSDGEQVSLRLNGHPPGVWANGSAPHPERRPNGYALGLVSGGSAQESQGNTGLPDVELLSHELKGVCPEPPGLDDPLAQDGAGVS
Method in brief: as §1

Row | SMILES | IC50 (human A2B receptors; recombinant HEK293 cells expressing human A2B receptor, agonist NECA, cAMP HTRF, 15 min incubation) [nM] | IC50 (human A2A receptors; recombinant HEK293 cells expressing human A2A receptor, agonist NECA, cAMP HTRF, 15 min incubation) [nM] | IC50 (human A2B receptors) [nM] | IC50 (human A2A receptors) [nM]
1 | O=C(c1cc2c(cn1)c(-c1cnc3c(F)cc(F)cn13)nn2CC(F)(F)F)N1CC2CCC(C1)C2O (stereo not drawn) [Compound 187, [3-(6,8-Difluoro-imidazo[1,2-a]pyridin-3-yl)-1-(2,2,2-trifluoro-ethyl)-1H-pyrazolo[4,3-c]pyridin-6-yl]-(8-endo-hydroxy-3-aza-bicyclo[3.2.1]oct-3-yl)-methanone] | < 1000 | < 100 |  | 
2 | [2H]C1([2H])CCOCCN1C(=O)c1cc2c(cn1)c(-c1cnc3c(F)cc(F)cn13)nn2CC(F)(F)F [Compound 190, [3-(6,8-Difluoro-imidazo[1,2-a]pyridin-3-yl)-1-(2,2,2-trifluoro-ethyl)-1H-pyrazolo[4,3-c]pyridin-6-yl]-1,4-oxazepan-5,5-dideuterio-4-yl-methanone] |  |  | < 100 | < 100
3 | O=C(c1cc2c(cn1)c(-c1cnc3c(F)cc(F)cn13)nn2CC(F)(F)F)N1CCCCCO1 [Compound 191, [3-(6,8-Difluoro-imidazo[1,2-a]pyridin-3-yl)-1-(2,2,2-trifluoro-ethyl)-1H-pyrazolo[4,3-c]pyridin-6-yl]-[1,2]oxazepan-2-yl-methanone] |  |  | < 1000 | < 100
4 | O=C(c1cc2c(cn1)c(-c1cnc3c(F)cc(F)cn13)nn2CC(F)(F)F)N1CCOC2(CCC2)C1 [Compound 192, [3-(6,8-Difluoro-imidazo[1,2-a]pyridin-3-yl)-1-(2,2,2-trifluoro-ethyl)-1H-pyrazolo[4,3-c]pyridin-6-yl]-(5-oxa-8-aza-spiro[3.5]non-8-yl)-methanone] |  |  | < 1000 | < 100
5 | O=C(c1cc2c(cn1)c(-c1cnc3c(F)cc(F)cn13)nn2CC(F)(F)F)N1CCOCC(O)C1 (centres unmarked) [Compound 193, [3-(6,8-Difluoro-imidazo[1,2-a]pyridin-3-yl)-1-(2,2,2-trifluoro-ethyl)-1H-pyrazolo[4,3-c]pyridin-6-yl]-(6-hydroxy-1,4-oxazepan-4-yl)-methanone] |  |  | < 1000 | < 100
6 | CC(C)(C)OC(=O)N1CC2CC1CN2C(=O)c1cc2c(cn1)c(-c1cnc3c(F)cc(F)cn13)nn2CC(F)(F)F (centres unmarked) [Compound 194, 5-[3-(6,8-Difluoro-imidazo[1,2-a]pyridin-3-yl)-1-(2,2,2-trifluoro-ethyl)-1H-pyrazolo[4,3-c]pyridine-6-carbonyl]-2,5-diaza-bicyclo[2.2.1]heptane-2-carboxylic Acid Tert-Butyl Ester] |  |  | < 100 | < 100
7 | CN(CCNC(=O)OC(C)(C)C)C(=O)c1cc2c(cn1)c(-c1cnc3c(F)cc(F)cn13)nn2CC(F)(F)F [Compound 197, (2-{[3-(6,8-Difluoro-imidazo[1,2-a]pyridin-3-yl)-1-(2,2,2-trifluoro-ethyl)-1H-pyrazolo[4,3-c]pyridine-6-carbonyl]-methyl-amino}-ethyl)-carbamic Acid Tert-Butyl Ester] |  |  | < 1000 | < 100
8 | O=C(c1cc2c(cn1)c(-c1cnc3c(F)cc(F)cn13)nn2CC(F)(F)F)N1CC2COC(C2)C1 (centres unmarked) [Compound 199, [3-(6,8-Difluoro-imidazo[1,2-a]pyridin-3-yl)-1-(2,2,2-trifluoro-ethyl)-1H-pyrazolo[4,3-c]pyridin-6-yl]-(6-oxa-3-aza-bicyclo[3.2.1]oct-3-yl)-methanone] |  |  | < 1000 | < 100
9 | O=C1CN(C(=O)c2cc3c(cn2)c(-c2cnc4c(F)cc(F)cn24)nn3CC(F)(F)F)CCCN1 [Compound 201, 4-[3-(6,8-Difluoro-imidazo[1,2-a]pyridin-3-yl)-1-(2,2,2-trifluoro-ethyl)-1H-pyrazolo[4,3-c]pyridine-6-carbonyl]-1,4-diazepan-2-one] |  |  | < 1000 | < 100
10 | O=C(c1cc2c(cn1)c(-c1cnc3c(F)cc(F)cn13)nn2CC(F)(F)F)N1CCC(O)C(F)(F)C1 (centres unmarked) [Compound 203, (3,3-Difluoro-4-hydroxy-piperidin-1-yl)-[3-(6,8-difluoro-imidazo[1,2-a]pyridin-3-yl)-1-(2,2,2-trifluoro-ethyl)-1H-pyrazolo[4,3-c]pyridin-6-yl]-methanone] |  |  | < 1000 | < 100
